The supplement of paper PMC12317010
Where a name gives a salt, the structure may show the parent alone.

Assay: collision cross section in nitrogen (drift tube, single-field); higher = larger gas-phase ion size
[1] = ion type: [M-H], ion source: ESI, ion mode: Negative
[2] = ion type: [M+Na], ion source: ESI, ion mode: Positive
[3] = ion type: [M+H], ion source: APCI, ion mode: Positive
[4] = ion type: [M+H], ion source: ESI, ion mode: Positive
[5] = ion type: [M+], ion source: APCI, ion mode: Positive
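Note: chemical standards at 10 µM analysed by drift tube IMS-QTOF MS in about 3.95 torr nitrogen, mean of duplicate injections differing ≤1%, mass error below 10 ppm.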

## CC(=O)Nc1ccc(C)c(Cl)c1 [N-(3-Chloro-4-methylphenyl)acetamide]
[1]
  collision cross section in nitrogen: 138.2 Å²

## CCOC(=O)C(C)OC(=O)c1cc(Oc2ccc(C(F)(F)F)cc2Cl)ccc1[N+](=O)[O-] (stereo not drawn) [Lactofen]
[2]
  collision cross section in nitrogen: 212.7 Å²
[1]
  collision cross section in nitrogen: 196 Å²

## CNC(=O)Oc1ccc2c(c1)[C@]1(C)CCN(C)[C@@H]1N2C [Physostigmine]
[3]
  collision cross section in nitrogen: 169.6 Å²
[4]
  collision cross section in nitrogen: 169.8 Å²
[2]
  collision cross section in nitrogen: 169.6 Å²

## c1ccc2c(c1)ccc1ncccc12 [Benzo(f)quinoline]
[3]
  collision cross section in nitrogen: 134.7 Å²
[4]
  collision cross section in nitrogen: 134.8 Å²
[5]
  collision cross section in nitrogen: 130.3 Å²

## O=c1c(O)c(-c2ccc(O)c(O)c2)oc2cc(O)cc(O)c12 [Quercetin]
[1]
  collision cross section in nitrogen: 164.7 Å²

## O=C(O)c1cc(C(=O)O)cc(S(=O)(=O)O)c1 [Lithium 3-carboxy-5-sulfobenzoate]
[1]
  collision cross section in nitrogen: 147.3 Å²

## Nc1ccc(-c2ccc(N)c(Cl)c2)cc1Cl [3,3'-Dichlorobenzidine dihydrochloride]
[4]
  collision cross section in nitrogen: 167.6 Å²
[5]
  collision cross section in nitrogen: 153.3 Å²

## COc1cc(CCC(=O)CC(=O)CCc2ccc(O)c(OC)c2)ccc1O [Tetrahydrocurcumin]
[2]
  collision cross section in nitrogen: 181.2 Å²
[1]
  collision cross section in nitrogen: 184.8 Å²

## CCOC=C(C(=O)OCC)C(=O)OCC [Diethyl ethoxymethylenemalonate]
[2]
  collision cross section in nitrogen: 146.8 Å²

## CC1=NN(c2ccc(S(=O)(=O)O)cc2)C(=O)C1
[4]
  collision cross section in nitrogen: 162.7 Å²
[1]
  collision cross section in nitrogen: 159.1 Å²

## O=S(=O)(O)CCN1CCN(CCO)CC1 [Sodium 2-[4-(2-hydroxyethyl)piperazin-1-yl]ethanesulfonate]
[4]
  collision cross section in nitrogen: 151.1 Å²
[2]
  collision cross section in nitrogen: 167.9 Å²

## CCC(=O)C=Cc1ccc(OC)cc1 [1-(4-Methoxyphenyl)-1-pentene-3-one]
[3]
  collision cross section in nitrogen: 143.3 Å²

## Cc1cc(C)c(O)c(C(C)(C)C)c1 [6-tert-Butyl-2,4-xylenol]
[1]
  collision cross section in nitrogen: 144.9 Å²

## COc1cc(/C=C/C(=O)CC(=O)/C=C/c2ccc(O)c(OC)c2)ccc1O [Curcumin]
[3]
  collision cross section in nitrogen: 202.8 Å²
[1]
  collision cross section in nitrogen: 187.7 Å²

## O=C(N[C@H]1CN2CCC1CC2)c1ccc2c(c1)OCCO2
[3]
  collision cross section in nitrogen: 175.9 Å²
[4]
  collision cross section in nitrogen: 175.7 Å²
[1]
  collision cross section in nitrogen: 177.1 Å²

## CCCCCCCCCC[N+](C)(C)[O-] [N,N-Dimethyldecylamine oxide]
[4]
  collision cross section in nitrogen: 164.1 Å²
[2]
  collision cross section in nitrogen: 166.7 Å²

## c1ccc2sc(SN(C3CCCCC3)C3CCCCC3)nc2c1 [N,N-Dicyclohexyl-2-benzothiazolesulfenamide]
[3]
  collision cross section in nitrogen: 186.2 Å²
[4]
  collision cross section in nitrogen: 185.8 Å²
[2]
  collision cross section in nitrogen: 193.7 Å²

## C=CC(=O)OCCCCCCOC(=O)C=C [1,6-Hexanediol diacrylate]
[2]
  collision cross section in nitrogen: 157.7 Å²

## O=C(COc1ccc(Cl)cc1)N1CCN(Cc2ccc3c(c2)OCO3)CC1 [Fipexide hydrochloride]
[3]
  collision cross section in nitrogen: 190.4 Å²
[4]
  collision cross section in nitrogen: 190.3 Å²
[2]
  collision cross section in nitrogen: 202.1 Å²

## COC(=O)Cc1ccccc1 [Methyl phenylacetate]
[1]
  collision cross section in nitrogen: 131.4 Å²

## Cc1ccc(N2C(=O)C=CC2=O)cc1N1C(=O)C=CC1=O [Toluene-2,4-dimaleimide]
[3]
  collision cross section in nitrogen: 163.3 Å²

## O=C(O)Cc1cc(I)c(Oc2cc(I)c(O)c(I)c2)c(I)c1 [Tetrac]
[1]
  collision cross section in nitrogen: 203.1 Å²

## O=C1OC2(c3ccccc31)c1cc(Br)c(O)c(Br)c1Oc1c2cc(Br)c(O)c1Br [Eosin]
[1]
  collision cross section in nitrogen: 207.8 Å²

## CC(=O)CC(=O)Nc1ccc2[nH]c(=O)[nH]c2c1 [3-Oxo-N-(2-oxo-2,3-dihydro-1H-benzimidazol-5-yl)butanamide]
[1]
  collision cross section in nitrogen: 154.4 Å²

## CCCCC(CC)COC(=O)C=Cc1ccc(OC)cc1 (stereo not drawn) [Octinoxate]
[2]
  collision cross section in nitrogen: 184.1 Å²

## C=CC(=O)OCCOC(=O)CCC(=O)O [Acryloyloxyethyl succinate]
[2]
  collision cross section in nitrogen: 145.9 Å²

## OCCN(CCO)CCN(CCO)CCO [2,2',2'',2'''-(1,2-Ethanediyldinitrilo)tetrakisethanol]
[3]
  collision cross section in nitrogen: 149.2 Å²
[4]
  collision cross section in nitrogen: 149.6 Å²
[2]
  collision cross section in nitrogen: 151.1 Å²

## O=C1C=CC(=O)N1c1ccccc1 [1-Phenyl-1H-pyrrole-2,5-dione]
[4]
  collision cross section in nitrogen: 135.3 Å²

## C[C@]12C=CC3=C4CCC(=O)C=C4CC[C@H]3[C@@H]1CC[C@@H]2O [17beta-Trenbolone]
[3]
  collision cross section in nitrogen: 166.2 Å²
[4]
  collision cross section in nitrogen: 166.4 Å²
[2]
  collision cross section in nitrogen: 192.3 Å²
[1]
  collision cross section in nitrogen: 168.7 Å²

## CC(=O)CCc1ccc(OC(C)=O)cc1 [4-[4-(Acetyloxy)phenyl]-2-butanone]
[2]
  collision cross section in nitrogen: 146.4 Å²

## N=C1C=CC(=C(c2ccc(N)cc2)c2ccc(N)cc2)C=C1 [C.I. Basic Red 9 monohydrochloride]
[3]
  collision cross section in nitrogen: 173.3 Å²
[4]
  collision cross section in nitrogen: 174.1 Å²
[5]
  collision cross section in nitrogen: 173.7 Å²
[1]
  collision cross section in nitrogen: 177.9 Å²

## Oc1ccc(C2(c3ccc(O)c(C4CCCCC4)c3)CCCCC2)cc1C1CCCCC1 [1,1-Bis(3-cyclohexyl-4-hydroxyphenyl)cyclohexane]
[2]
  collision cross section in nitrogen: 218.4 Å²
[1]
  collision cross section in nitrogen: 217.2 Å²

## CCCCC(CC)COS(=O)(=O)O (stereo not drawn) [Sodium ethasulfate]
[1]
  collision cross section in nitrogen: 150.5 Å²

## Cc1c[nH]c2ccccc12 [3-Methylindole]
[1]
  collision cross section in nitrogen: 125.2 Å²

## COc1ccc(C(=O)c2ccccc2O)c(O)c1 [2,2′-Dihydroxy-4-methoxybenzophenone]
[1]
  collision cross section in nitrogen: 153.6 Å²

## CCCC(Cn1cncn1)c1ccc(Cl)cc1Cl (stereo not drawn) [Penconazole]
[3]
  collision cross section in nitrogen: 166.3 Å²
[4]
  collision cross section in nitrogen: 166.1 Å²

## COc1cc(C(C)C)c2c(c1)S(=O)(=O)N(COc1cc(=O)n3cccc(OCCN4CCCCC4)c3n1)C2=O
[3]
  collision cross section in nitrogen: 228 Å²
[4]
  collision cross section in nitrogen: 226.9 Å²
[2]
  collision cross section in nitrogen: 230.1 Å²

## Nc1ccc(S(=O)(=O)Nc2nccs2)cc1 [Sulfathiazole]
[3]
  collision cross section in nitrogen: 153.5 Å²
[4]
  collision cross section in nitrogen: 153.9 Å²
[2]
  collision cross section in nitrogen: 167.5 Å²
[1]
  collision cross section in nitrogen: 154.3 Å²

## N=C(NCCCCCCNC(=N)NC(=N)Nc1ccc(Cl)cc1)NC(=N)Nc1ccc(Cl)cc1 [Chlorhexidine]
[3]
  collision cross section in nitrogen: 222.9 Å²
[4]
  collision cross section in nitrogen: 222.4 Å²
[2]
  collision cross section in nitrogen: 226.5 Å²
